Source: patent publication US20260373136A1, “A NOVEL DOSAGE REGIMEN USING LOW DOSES OF DONEPEZIL OR DERIVATIVE THEREOF FOR PREVENTING OR TREATING A COMPULSIVE DISORDER” (SORBONNE UNIVERSITE, priority 2022, published 2026)

How the values were obtained:
[1] = Patient Health Questionnaire (PHQ-9) before and after treatment; format: in vivo, human; conditions: for depression symptoms: PHQ-9 post vs pre-treatment; for Patient Health Questionnaire (PHQ-9) score, post treatment: 5-9 mild, 10-14 moderate, 15-19 moderately severe, 20-27 severe depression
Procedure: (§1) 6 anorexic patients were treated with donepezil: 5 of them with a daily dose according to the present invention and 1 with a higher dose (comparative).
(§2) The studies were led in hospital. Each case is presented below.
The treatment started with a daily dose of donepezil of 0.5 mg for 10 days then the daily dose was increased to 1 mg for 7 days then increased to 1.5 mg for 71 days (2 months and 10 days) then increased to 2 mg for 22 days and then increased to 2.5 mg and remains on this dose for 4 months and 18 days.
Patient #2 depression symptoms have also been evaluated with Patient Health Questionnaire (PHQ-9) (available on https://med.stanford.edu/fastlab/research/imapp/msrs/_jcr_content/main/accordion/accor dion_content3/download_256324296/file.res/PHQ9%20id%20date%2008.03.pdf) before and after the treatment. The following scores have been obtained:
The score obtained with questionnaire PHQ-9 is classified as follows: • 5-9: mild depression; 10-14: moderate depression; 15-19: moderately severe depression; • 20-27: severe depression
(§3) The treatment started with a daily dose of donepezil of 0.5 mg for 13 days then the daily dose was increased to 0.75 mg for 9 days then increased to 1 mg for 17 days and then increased to 1.5 mg and remained at this dosage for a month then stopped for two months and then restarted with a daily dose of 1.5 mg that remains within 1 month and then discontinued.
Patient #4 depression symptoms have also been evaluated with questionnaire PHQ-9 before and after the treatment. The following scores have been obtained:
The score obtained with questionnaire PHQ-9 is classified as follows: • 5-9: mild depression; 10-14: moderate depression; 15-19: moderately severe depression; 20-27: severe depression
(§4) The treatment started with a daily dose of donepezil of 0.5 mg for 8 days and then the daily dose was increased to 1 mg for 9 days and then increased to 1.67 mg for 62 days and then increased to 2.5 mg.
Patient #6 depression symptoms have also been evaluated with questionnaire PHQ-9 before and after the treatment.

[2] = Eating Disorder Examination Questionnaire (EDE-q) before and after treatment; format: in vivo, human; design: scale not given here; conditions: >=4 clinical range, >2.8 possible clinically significant pathology
Procedure: as §1, §2, §3
The eating disorders of patient #4 before and after treatment have been evaluated with the Eating Disorder Examination Questionnaire (EDE-q) (available on https://www.corc.uk.net/outcome-experience-measures/eating-disorder-examination-questionnaire-ede-q/) which has given the following results:
as §4
The eating disorders of patient #6 before and after treatment have been evaluated with EDE-q questionnaire which has given the following results: […]

AChE = conditions: background statement; cited from earlier work
[3] = Patient #6, daily dose 0.5 mg to 2.5 mg, pre-treatment 3.8

SMILES: COc1cc2c(cc1OC)C(=O)C(CC1CCN(Cc3ccccc3)CC1)C2 (centres unmarked) [donepezil]
- depression symptoms ([1]; Patient #2, daily dose 0.5-2.5 mg): diminution of their depression symptoms
- Patient Health Questionnaire (PHQ-9) score, post treatment ([1]; Patient #2, daily dose 0.5-2.5 mg, pre-treatment score 10): 4
- depression symptoms ([1]; Patient #4, daily dose 0.5 to 1.5 mg): diminution of their depression symptoms
- Patient Health Questionnaire (PHQ-9) score, post treatment ([1]; Patient #4, daily dose 0.5 to 1.5 mg, pre-treatment score 17): 5
- depression symptoms ([1]; Patient #6, daily dose 0.5 mg to 2.5 mg): diminution of their depression symptoms
- Patient Health Questionnaire (PHQ-9) score, post treatment ([1]; Patient #6, daily dose 0.5 mg to 2.5 mg, pre-treatment score 6): 2
- EDE-q Restraint score, post treatment ([2]; Patient #4, daily dose 0.5 to 1.5 mg, pre-treatment 4): 2
- EDE-q Eating concerns score, post treatment ([2]; Patient #4, daily dose 0.5 to 1.5 mg, pre-treatment 4.6): 2.2
- EDE-q Global scores, post treatment ([2]; Patient #4, daily dose 0.5 to 1.5 mg, pre-treatment 4.9): 3.0
- EDE-q Weight concerns score, post treatment ([2]; Patient #4, daily dose 0.5 to 1.5 mg, pre-treatment 5.4): 3.4
- EDE-q Shape concerns score, post treatment ([2]; Patient #4, daily dose 0.5 to 1.5 mg, pre-treatment 5.8): 4.4
- EDE-q Eating concerns score, post treatment ([2]; Patient #6, daily dose 0.5 mg to 2.5 mg, pre-treatment 0.6): 0.4
- EDE-q Global scores, post treatment ([2]; Patient #6, daily dose 0.5 mg to 2.5 mg, pre-treatment 3.4): 2.6
- EDE-q Restraint score, post treatment [2, 3]: 2.8
- EDE-q Weight concerns score, post treatment [2, 3]: 3.2
- EDE-q Shape concerns score, post treatment ([2]; Patient #6, daily dose 0.5 mg to 2.5 mg, pre-treatment 5.4): 4.1
- inhibition of AChE (AChE): reversible and selective inhibitor of AChE
